Like-named read-outs stand apart in the source and are kept apart here.
Tests used:
Phytophthora infestans = conditions: 100 ppm copper
plant pathogen fungi = assay: Fengycin concentration of diluted culture inhibiting plant pathogen fungi; format: cell-based; conditions: culture in glutaminic acid/glucose solution diluted 10-20 times

O=S(=O)([O-])[O-].[Cu+2] [copper, copper-sulphate]
growth of Phytophthora infestans strains (Phytophthora infestans): did not show growth anymore
growth of P. syringae strains (P. syringae; 200 ppm copper): all increased
growth of P. syringae strains (P. syringae; 400 ppm copper): none of them

fengycin
fengycin concentration which achieves a complete inhibition of the majority of the plant pathogen fungi (plant pathogen fungi): 10 to 12 mg/L
